In PubChem BioAssay AID330 (DTP/NCI, 2004) one finds T/C data, which are given here for 26 compounds.

For this experiment, the system named is P388 leukemia ip, CD2F1 mice, survival T/C. As to the kind of experiment: NCI In Vivo Anticancer Drug Screen. Data for tumor model P388 Leukemia (intraperitoneal) in CD2F1 (CDF1) mice. As to conditions: endpoint: median survival time, higher = longer survival. The procedure, abridged: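 Mice carrying the transplanted tumor received test compound or vehicle. Survival was recorded in each group, and the value is the treated-group measurement divided by that of the vehicle-treated control group.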

[1] abbreviates: dose: 50.0 mg/kg/injection, schedule: Q01DX005 (ip), vehicle: Klucel (hydroxypropylcellulose) (HPC).
The mark [2] stands for this setting: dose: 100.0 mg/kg/injection, schedule: Q01DX005 (ip), vehicle: Klucel (hydroxypropylcellulose) (HPC).
Where [3] appears, read: dose: 200.0 mg/kg/injection, schedule: Q01DX005 (ip), vehicle: Klucel (hydroxypropylcellulose) (HPC).
Where [4] appears, read: dose: 50.0 mg/kg/injection, schedule: Q01DX005 (ip), vehicle: saline with Tween-80.
The mark [5] stands for this setting: dose: 100.0 mg/kg/injection, schedule: Q01DX005 (ip), vehicle: saline with Tween-80.
Setting [6] is: dose: 12.5 mg/kg/injection, schedule: Q01DX005 (ip), vehicle: saline with Tween-80.
Where [7] appears, read: dose: 25.0 mg/kg/injection, schedule: Q01DX005 (ip), vehicle: saline with Tween-80.
Setting [8] is: dose: 200.0 mg/kg/injection, schedule: Q01DX005 (ip), vehicle: saline with Tween-80.
Setting [9] is: dose: 50.0 mg/kg/injection, schedule: Q01DX009 (ip), vehicle: saline.
[10] abbreviates: dose: 100.0 mg/kg/injection, schedule: Q01DX009 (ip), vehicle: saline.
[11] abbreviates: dose: 200.0 mg/kg/injection, schedule: Q01DX009 (ip), vehicle: saline.
Setting [12] is: dose: 50.0 mg/kg/injection, schedule: Q01DX009 (ip), vehicle: Klucel (hydroxypropylcellulose) (HPC).
Where [13] appears, read: dose: 100.0 mg/kg/injection, schedule: Q01DX009 (ip), vehicle: Klucel (hydroxypropylcellulose) (HPC).
Setting [14] is: dose: 60.0 mg/kg/injection, schedule: Q01DX005 (ip), vehicle: saline with Tween-80.
The mark [15] stands for this setting: dose: 120.0 mg/kg/injection, schedule: Q01DX005 (ip), vehicle: saline with Tween-80.
[16] abbreviates: dose: 240.0 mg/kg/injection, schedule: Q01DX005 (ip), vehicle: saline with Tween-80.

SMILES strings stand for the structures. Several values for one entry are separate records, joined by “and”; a condition that tells them apart may be missing. Equal values may be shown once. Inconclusive results and toxic doses are left out.

As for `COP(=O)(OC)C1c2ccccc2-c2cccc(C(=O)O)c21` (stereo not drawn), the T/C under setting [1] is 105 % of control, the T/C under setting [2] is 106 % of control and the T/C under setting [3] is 110 % of control.
For `CN(N=Nc1ccc(C#N)cc1)C(C)(C)C`, the T/C by setting is: under setting [4], 100 % of control; under setting [5], 100 % of control.
For the compound `CCOC(=O)Cn1nc([O-])[n+]2ccccc12`, the T/C was 100 % of control (dose: 100.0 mg/kg/injection, schedule: Q04DX002 (ip), vehicle: saline); 107 % of control (dose: 200.0 mg/kg/injection, schedule: Q04DX002 (ip), vehicle: saline); 98 % of control (dose: 400.0 mg/kg/injection, schedule: Q04DX002 (ip), vehicle: saline).
As for `COC(=O)/C=C(\C(=O)OC)C1=C(N2CCCC2)CC(C)(C)CC1=O`, the T/C under setting [1] is 102 % of control; the T/C under setting [2] is 100 % of control and 95 % of control; the T/C under setting [3] was 100 % of control and 101 % of control.
On to `O=C(O)c1cc2ccccc2c(N=Nc2cc(C(F)(F)F)ccc2Cl)c1O`, for which the T/C reads like this: under setting [6], 102 % of control; under setting [7], 100 % of control; under setting [4], 98 % of control and 100 % of control; under setting [8], 86 % of control.
Regarding `COc1cccc2c1C(=O)c1c(O)c3c(c(O)c1C2=O)CC(O)(C(=O)CO)CC3OC1CC2C(OC3COCC(C#N)N32)C(C)O1` (stereo not drawn), the T/C is 102 % of control and 120 % of control (dose: 0.5 mg/kg/injection, schedule: Q04DX003 (ip), vehicle: saline with Tween-80); 116 % of control (dose: 1.0 mg/kg/injection, schedule: Q04DX003 (ip), vehicle: saline with Tween-80); 113 % of control (dose: 4.0 mg/kg/injection, schedule: Q04DX003 (ip), vehicle: saline with Tween-80).
Regarding `[B-][N+]1(C)CC[N+]([B-])(C)CC1` (stereo not drawn), the T/C is, setting by setting: (dose: 5.0 mg/kg/injection, schedule: Q01DX009 (ip), vehicle: saline with Tween-80) 90 % of control; (dose: 10.0 mg/kg/injection, schedule: Q01DX009 (ip), vehicle: saline with Tween-80) 95 % of control; (dose: 20.0 mg/kg/injection, schedule: Q01DX009 (ip), vehicle: saline with Tween-80) 90 % of control.
Regarding `Nc1cc(S(=O)(=O)O)c(Br)c(Br)c1Br`, the T/C is 94 % of control under setting [9], 95 % of control under setting [10] and 90 % of control under setting [11].
On to `FC(F)(F)C1(C(F)(F)F)CC2COc3ccccc3C2=N1` (stereo not drawn), for which the T/C runs as follows: (dose: 50.0 mg/kg/injection, schedule: Q04DX002 (ip), vehicle: suspension in saline) 100 % of control; (dose: 100.0 mg/kg/injection, schedule: Q04DX002 (ip), vehicle: suspension in saline) 99 % of control; (dose: 200.0 mg/kg/injection, schedule: Q04DX002 (ip), vehicle: suspension in saline) 100 % of control.
Take `C[CH2][Sn]=[O].c1cc[c]([Ge]([c]2ccccc2)[c]2ccccc2)cc1`: the T/C reads like this: (dose: 25.0 mg/kg/injection, schedule: Q01DX009 (ip), vehicle: saline) 96 % of control; under setting [9], 88 % of control and 93 % of control and 96 % of control; under setting [10], 101 % of control and 88 % of control; under setting [11], 121 % of control and 88 % of control and 96 % of control.
Take `O=C([CH-]C(=O)C(F)(F)F)c1ccccc1.O=C([CH-]C(=O)C(F)(F)F)c1ccccc1.O=C([CH-]C(=O)C(F)(F)F)c1ccccc1.O=C([CH-]C(=O)C(F)(F)F)c1ccccc1.[Eu+3].c1ccncc1`: the T/C by setting is: under setting [12], 113 % of control; under setting [13], 104 % of control.
As to `CC([NH-])CC(C)[NH-].O=C(O)C(=O)O.[Pt+2]` (stereo not drawn), the T/C is 150 % of control (dose: 12.5 mg/kg/injection, schedule: Q04DX002 (ip), vehicle: saline with Tween-80) and 174 % of control (dose: 25.0 mg/kg/injection, schedule: Q04DX002 (ip), vehicle: saline with Tween-80).
Turning to `OCCN1CCCN(CCCN2c3ccccc3Sc3ccc(C(F)(F)F)cc32)CC1`, the T/C was 97 % of control (dose: 6.25 mg/kg/injection, schedule: Q01DX005 (ip), vehicle: saline with Tween-80); 102 % of control under setting [6]; 118 % of control under setting [7].
As for `CC(NNC(=S)N1CC2CCC(CC2)C1)c1cccc[n+]1[O-]` (stereo not drawn), the T/C under setting [4] was 101 % of control, the T/C under setting [5] was 100 % of control and the T/C under setting [8] is 100 % of control.
Turning to `CC(C)c1nnc(NC(=O)CSC(=S)N2CCOCC2)s1`, the T/C runs as follows: under setting [14], 106 % of control; under setting [15], 98 % of control; under setting [16], 97 % of control.
In the same order, the values of `Cc1noc2c1CC(=O)c1ccccc1OC2` are 100 % of control, 98 % of control and 94 % of control.
On to `C=C(Cl)CN(CC)CCO`, for which the T/C runs as follows: (dose: 25.0 mg/kg/injection, schedule: Q01DX009 (ip), vehicle: saline sonified) 100 % of control; (dose: 50.0 mg/kg/injection, schedule: Q01DX009 (ip), vehicle: saline sonified) 100 % of control; (dose: 100.0 mg/kg/injection, schedule: Q01DX009 (ip), vehicle: saline sonified) 100 % of control.
Regarding `O=c1cc(-c2ccc3ccccc3n2)oc2ccc(Cl)cc12`, the T/C is 107 % of control (dose: 10.0 mg/kg/injection, schedule: Q01DX009 (ip), vehicle: saline); 93 % of control (dose: 20.0 mg/kg/injection, schedule: Q01DX009 (ip), vehicle: saline); 89 % of control (dose: 40.0 mg/kg/injection, schedule: Q01DX009 (ip), vehicle: saline).
Turning to `O=C1CC2(C(=O)N1CN1CCN(c3ccc(F)cc3)CC1)c1ccccc1-c1ccccc12` (tested in a mixture with another compound), the T/C (dose: 100.0 mg/kg/injection, schedule: Q04DX003 (ip), vehicle: saline with Tween-80) was 90 % of control.
For the compound `COC1=CC(=O)c2ncc(Cl)cc2C1=O`, the T/C is 111 % of control (dose: 30.0 mg/kg/injection, schedule: Q01DX005 (ip), vehicle: saline with Tween-80); 100 % of control and 93 % of control under setting [14].
Consider `NS(=O)(=O)c1ccc(N=c2c3ccccc3n(-c3ccccc3)c3ccccc23)cc1`, for which the T/C by setting is: under setting [4], 102 % of control; under setting [5], 93 % of control; under setting [8], 90 % of control.
Regarding `O=C(NP(=O)(N1CC1)N1CC1)c1cc(I)ccc1I`, the T/C runs as follows: (dose: 4.0 mg/kg/injection, schedule: Q01DX005 (ip), vehicle: suspension in saline) 122 % of control; (dose: 4.0 mg/kg/injection, schedule: Q01DX005 (iv), vehicle: suspension in saline) 107 % of control; (dose: 8.0 mg/kg/injection, schedule: Q01DX005 (iv), vehicle: suspension in saline) 112 % of control; (dose: 16.0 mg/kg/injection, schedule: Q01DX005 (ip), vehicle: suspension in saline) 165 % of control; (dose: 16.0 mg/kg/injection, schedule: Q01DX005 (iv), vehicle: suspension in saline) 122 % of control; (dose: 32.0 mg/kg/injection, schedule: Q01DX005 (ip), vehicle: suspension in saline) 190 % of control. The T/C (dose: 64.0 mg/kg/injection, schedule: Q01DX005 (ip), vehicle: suspension in saline) was 192 % of control.
For the compound `O=c1cc(-c2ccccc2)c2cc3c(cc2[nH]1)oc1ccccc13`, the T/C is, setting by setting: under setting [14], 93 % of control; under setting [15], 98 % of control; under setting [16], 100 % of control.
Consider `CN(C)/C=N/c1c(CO)c(-c2ccccc2)nn1-c1ccccc1`, for which the T/C runs as follows: (dose: 50.0 mg/kg/injection, schedule: Q01DX009 (ip), vehicle: saline with Tween-80) 104 % of control; (dose: 100.0 mg/kg/injection, schedule: Q01DX009 (ip), vehicle: saline with Tween-80) 100 % of control; (dose: 200.0 mg/kg/injection, schedule: Q01DX009 (ip), vehicle: saline with Tween-80) 104 % of control; (dose: 400.0 mg/kg/injection, schedule: Q01DX009 (ip), vehicle: saline with Tween-80) 105 % of control.
With `Cc1cnc(C2OCCO2)c2cccc([N+](=O)[O-])c12`, the T/C by setting is: under setting [12], 105 % of control; under setting [13], 105 % of control; (dose: 200.0 mg/kg/injection, schedule: Q01DX009 (ip), vehicle: Klucel (hydroxypropylcellulose) (HPC)) 101 % of control.
In the case of `Nc1cccc(SC(CC(=O)c2ccc(-c3ccccc3)cc2)c2ccco2)c1` (stereo not drawn), the T/C was 97 % of control under setting [12] and 101 % of control under setting [13].
